Reference: PubChem BioAssay (NCI)
“And” between values parts separate entries of the source, which are not always exact repeats. Identical values can stand only once.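 Briefly, cells in 96-well plates were exposed to five compound concentrations for 48 h, and endpoints were estimated by linear interpolation. The concentration for 50% growth inhibition is given as GI50. TGI marks complete inhibition of growth.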

These compounds were tested on MDA-MB-468 breast (assay: DTP human tumour cell line panel, 48 h).
Work on COc1cc2c3c(n(CCCNCC4CC4)c(=O)c2cc1OC)-c1cc2c(cc1C3=O)OCO2 yielded a GI50 of 1.54 µM and a TGI of 9.66 µM. With CNC(=O)c1cncc(/C=C/c2c(Cl)cccc2Cl)c1 the GI50 was 4.08 µM and the TGI was greater than 19.1 µM. For Nc1nc(Cl)nc2c1ncn2[C@@H]1O[C@H](COS(N)(=O)=O)[C@@H](O)[C@H]1O, the GI50 was 0.0176 µM and the TGI was 0.0468 µM and 0.0396 µM. For COc1ccc(CN=C(N)N=C(N)N)cc1OC, the GI50 was 47.6 µM and the TGI was 477 µM. Cc1c(C(N)=O)sc2c1c(=O)n(Cc1ccccc1)c1nnc(S(=O)(=O)CC(=O)Nc3ccc(Cl)cc3)n21 gave a GI50 of 12.7 µM and a TGI of 36.3 µM. Compound COC(=O)Nc1nc2ccc(S(=O)(=O)c3ccc(NC(=O)Nc4cc(C(F)(F)F)ccc4F)cc3)cc2[nH]1 has a GI50 greater than 25 µM and a TGI greater than 25 µM. In the case of O=C(N/N=C/c1ccc(Br)s1)c1[nH]c2ccc(Br)cc2c1-c1ccccc1, the GI50 is reported as 0.327 µM and the TGI is reported as 4.89 µM. Oc1ccc(O)c2c1C1(Cl)C(Cl)=C(Cl)C2(Cl)C1(Cl)Cl showed a GI50 of 3.71 µM and a TGI of 12.8 µM. In the case of N/C(=N\c1nc2c(Br)cccc2s1)C(Br)Br, the GI50 is reported as 2.57 µM and the TGI is reported as 9.69 µM. CNc1ncc2cc(Oc3ccc(F)cc3F)c(=O)n(C)c2n1 showed a GI50 greater than 25 µM and a TGI greater than 25 µM. Cc1ccc(-c2c3c(N)c4c(nc3nc3c2c(C)nn3-c2ccccc2)CCC4)cc1 was tested, and the GI50 was 1.97 µM and the TGI was 5.15 µM. In the case of COc1cc2nc(N3CCC[C@@H](NC4=CC(=O)c5ccccc5C4=O)C3)nc(N)c2cc1OC, the GI50 is reported as 1.81 µM and the TGI is reported as 3.77 µM. Compound CCc1c2c(nc3ccc(OCc4ccc(B5OC(C)(C)C(C)(C)O5)cc4)cc13)-c1cc3c(c(=O)n1C2)COC(=O)[C@]3(O)CC has a GI50 of less than 0.01 µM and a TGI of 0.0432 µM. Work on CN(CCCN(C)CCC1CCCCC1)CCC1CCCCC1 yielded a GI50 of 1.3 µM and a TGI of 2.66 µM. In the case of Nc1ccc(-c2nnc(SCc3ccc(O)c4ncccc34)n2-c2ccccc2)cc1, the GI50 is reported as 0.0358 µM and the TGI is reported as 1.85 µM. Work on O=C1COCCN1c1ccc(NCc2cn(C(=O)c3ccc(Cl)cc3)c3ccccc23)cc1 yielded a GI50 of 0.101 µM and a TGI of 0.286 µM. NCCSC(C[N+](=O)[O-])c1ccccc1Cl (stereo not given) showed a GI50 of 2.38 µM and a TGI of 6.5 µM. With c1ccc(/C(=N\Nc2ccc3ccccc3n2)c2ccccn2)cc1 the GI50 was 0.364 µM and the TGI was 5.82 µM. For O=CN1N=C(c2ccc(Nc3ccnc4cc(Cl)ccc34)cc2)CC1c1ccc(Cl)cc1 (stereo not given), the GI50 was 0.318 µM and the TGI was 8.33 µM. O=C1NC(SCc2ccc(F)cc2)=N/C1=C/c1cccc(OCc2ccc(Cl)cc2)c1 was tested, and the GI50 was 15.8 µM and the TGI was greater than 100 µM. For COc1cc(NC(=O)c2cc(O)c(C/C=C(\C)CCC=C(C)C)c(O)c2)cc2c1O[C@]1(C)CC[C@@H](O)C(C)(C)[C@H]1C2, the GI50 was 2 µM and the TGI was 8.08 µM. Work on CCCCN(CCCC)CCC(O)c1cc2ccc(C(F)(F)F)cc2c2cc(C(F)(F)F)ccc12 (stereo not given) yielded a GI50 of 1.68 µM and a TGI of 3.46 µM. For NS(=O)(=O)c1ccc(N2N=C(c3cccs3)CC2c2ccccc2O)cc1 (stereo not given), the GI50 was 0.717 µM and the TGI was 3.89 µM. CCc1nc(N)nc(N)c1C#CC(C)c1cc(-c2ccnc(C)c2)c2oc(C)nc2c1 (stereo not given) showed a GI50 of 0.103 µM and a TGI of 3 µM. For O=C1C=C(OCCCl)C(=O)c2c(O)ccc(O)c21, the GI50 was 1.64 µM and the TGI was 3.86 µM. Work on COc1ccc2c(c1)C=C1CSCC3=Cc4cc(OC)ccc4OC13O2 yielded a GI50 of 0.347 µM. Work on O=c1[nH]nc(-c2ccccc2)c2c(-c3ccccc3)onc12 yielded a GI50 of 0.424 µM and a TGI greater than 100 µM. CC1=NN(C(=O)c2nn(-c3ccc(Cl)cc3)cc2O)C(=O)C1 showed a GI50 of 4.92 µM and a TGI of 97 µM. For O=[N+]([O-])c1cc2c(ccc3occc32)o1, the GI50 was 3.18 µM and the TGI was 17.1 µM. With Cc1ccccc1NC(=O)c1cc2ccccc2cc1O the GI50 was 2.64 µM and the TGI was 7.89 µM. Work on CN(C)N=Nc1nn(C(=O)Nc2ccc(Cc3ccccc3)cc2)c2ccccc12 yielded a GI50 of 2.94 µM and a TGI greater than 100 µM. For Cn1ncnc1C1c2n[nH]c(=O)c3cc(F)cc(c23)NC1c1ccc(F)cc1 (stereo not given), the GI50 was 3.74 µM and the TGI was greater than 100 µM. For CCCC(CCC)C(=O)OCC1(CO)C/C(=C\c2ccc(C(F)(F)F)cc2)C(=O)O1 (stereo not given), the GI50 was 16.6 µM and the TGI was 32.9 µM. O=C(CN1C(=O)S/C(=C\C(Cl)=C\c2ccccc2)C1=O)NCCCn1ccnc1 was tested, and the GI50 was 1.35 µM and the TGI was 4.19 µM. CN(C)c1ncnc2c1ccn2C1OC(CO)C(O)C1O (stereo not given) gave a GI50 of 0.231 µM and a TGI of 1 µM. With C=C1C(=O)O[C@H]2[C@H]1CC/C(CNC(=O)/C=C/c1ccc(Cl)cc1Cl)=C\CC[C@@]1(C)O[C@@H]21 the GI50 was 0.396 µM and the TGI was 1.47 µM. Work on Cc1ccc(S(=O)(=O)Nc2cc(Sc3ccccc3)c(O)c3ccccc23)cc1 yielded a GI50 of 1.38 µM and a TGI of 3.36 µM. Compound O=C(Cn1c2ccccc2c2ccncc21)N/N=C\c1ccc2ccccc2c1 has a GI50 of 24.4 µM and a TGI of 65.5 µM.
